Source: publication PMC7411887, “New Paracyclophanylthiazoles with Anti-Leukemia Activity: Design, Synthesis, Molecular Docking, and Mechanistic Studies” (Molecules, 2020)
“Also recorded” adds a separate entry of the source.

Tests used:
[1] = tested on: Bcl-2; test: Bcl-2 assay on leukemia SR cell line; type: cell-based, human; details: for Bcl2 Concentration: ± SD
Description: 17. Empty the contents of the wells and wash by adding 400 μL of wash solution to every
18. Repeat the wash 4 more times for a total of 5 washes.
19. After the final wash, empty or aspirate the wells and firmly tap the plate on a lint free
paper towel to remove any remaining wash buffer.
20. Pipet 100 μL of Substrate Solution into each well.
21. Incubate for 30 minutes at room temperature on a plate shaker at ~500 rpm.
1. Mix all reagents thoroughly without foaming before use.
3. Take caution not to scratch the surface of the microwells.
5. Use the microwell strips immediately after washing or place upside down on a wet
absorbent paper for not longer than 15 minutes.
Prepare standard (1:2 dilution) in duplicate ranging from 32
8. Add 50 μL of diluted biotin-conjugate to all wells, including the blank wells.
10. Remove plate cover and empty the wells.
13. Remove plate cover and empty the wells.
Proceed to the next step.
available on a rotator set at 100 rpm. Avoid direct exposure to intense light.

[2] = tested on: caspase-3; test: Caspase-3 ELISA on leukemia SR cell line; type: cell-based, human; details: for Caspase 3 Conc: ± SD
Description: Since caspase-3 is important for spreading the apoptotic signal after exposure to antimitotic compounds [38], the effect of compound 3a on the caspase-3 activated enzyme was evaluated using ELISA and replicated three times. The reference compound and 3a were incubated for 30 min at room temperature in the dark on the leukemia SR cell line. […]
color. Add 50 μL of Stop solution into each well and mix thoroughly. The color changes […]
9. Read the O.D. absorbance at 450 nm in a micro-plate reader immediately after adding the
Caspase assay is performed according to the following procedures:
1. Allowing all reagents to reach room temperature before use. Gently mix all liquid reagents prior to use (Note: A standard curve must be run with each assay).
2. Determine the number of 8-well strips needed for the assay. Insert these in the frame(s) for current use. (Re-bag extra strips and frame. Store these in the refrigerator for future […]
3. Add 100 μL of the Standard Diluent Buffer to the zero standard wells. Well(s) reserved for chromogen blank should be left empty.
4. Add 100 μL of standards and controls or diluted samples to the appropriate microtiter wells. The sample dilution chosen should be optimized for each experimental system.
Tap gently on side of plate to mix.
5. Cover wells with plate cover and incubate for 2 hours at room temperature.
6. Thoroughly aspirate or decant solution from wells and discard the liquid. Wash wells 4 times. See Directions for Washing.
7. Pipette 100 μL of Caspase-3 (Active) Detection Antibody solution into each well except the chromogen blank(s). Tap gently on the side of the plate to mix.
8. Cover plate with plate cover and incubate for 1 h at room temperature.
9. Thoroughly aspirate or decant solution from wells and discard the liquid.
10. Wash wells 4 times. See Directions for Washing.
11. Add 100 μL Anti-Rabbit IgG HRP Working Solution to each well except the chromogen blank(s). Prepare the working dilution as described in Preparing IgG HRP.
12. Cover wells with the plate cover and incubate for 30 minutes at room temperature.
13. Thoroughly aspirate or decant solution from wells and discard the liquid. Wash wells 4
14. Add 100 μL of Stabilized Chromogen to each well. The liquid in the wells will begin to
15. Incubate for 30 min at room temperature and in the dark. […]
with aluminum foil or metalized mylar. The incubation time for chromogen substrate is often determined by the microtiter plate reader used. Many plate readers have the capacity to record a maximum optical density (O.D.) of 2.0. The O.D. values should be monitored and the substrate reaction stopped before the O.D. of the positive wells exceeds the limits of the instrument. The O.D. values at 450 nm can only be read after the Stop Solution has been added to each well. If using a reader that records only to 2.0 O.D., […]
16. Add 100 μL of Stop Solution to each well. Tap side of plate gently to mix. The solution in the wells should change from blue to yellow.
17. Read the absorbance of each well at 450 nm having blanked the plate reader against a chromogen blank composed of 100 μL each of Stabilized Chromogen and Stop Solution.
Read the plate within 2 hours after adding the Stop Solution.
18. Use a curve fitting software to generate the standard curve. A four-parameter algorithm provides the best standard curve fit.
19. Read the concentrations for unknown samples and controls from the standard curve.
Multiply value(s) obtained for sample(s) by the appropriate dilution factor to correct for the dilution in step 3. […]

[3] = tested on: leukemia SR cells; test: Cell cycle analysis, propidium iodide flow cytometry; details: for DNA Content % %G0-G1 / DNA Content % %G2-M / DNA Content % %Pre G1 / DNA Content % %S: at IC50, 24 h
[4] = tested on: SR cancer cell line; test: Mitochondrial membrane potential assay; type: cell-based, human

**Q.** What does the source list for `COc1cc2c(c(OC)c1OC)-c1ccc(OC)c(=O)cc1[C@@H](NC(C)=O)CC2` [Colchicine, colchicine, reference compound]?
**A.** Bcl2 Concentration [1]: 4.101 ± 0.1441 ng/mL; level of active caspase-3 [2]: 428.9 ng/mL; Caspase 3 Conc [2]: 428.9 ± 5.47 pg/mL; DNA Content % Comment [3]: cell growth arrest (G2/M); DNA Content % %G0-G1 [3]: 26.58%; DNA Content % %G2-M [3]: 48.15 ± 1.000 %; DNA Content % %Pre G1 [3]: 36.24%; DNA Content % %S [3]: 25.27%; mitochondrial membrane potential % Live cells [4]: 65.04%; mitochondrial membrane potential ΔΨm % Apoptic cells [4]: 34.96%; shift in fluorescence (Δψmt) compared with control cells [4]: significant results

**Q.** Which “Bcl2 Fold Change” value ([1]; relative to control) does the source give for `COC(=O)C=C1SC(=NNC(=O)c2cc3ccc2CCc2ccc(cc2)CC3)N(c2ccccc2)C1=O` [Compound 3a] here?
**A.** Its value is 0.59 fold.

**Q.** What about the “Bcl2 Concentration” value [1] of the same molecule?
**A.** Its value is 5.045 ± 0.1918 ng/mL.

**Q.** And the “level of active caspase-3” value [2]?
**A.** Its value is 471.2 ng/mL.

**Q.** And the “Caspase 3 Fold Change” value ([2]; relative to control)?
**A.** The value was 8.84 fold.

**Q.** And the “Caspase 3 Conc” value [2]?
**A.** Its value is 471.2 ± 6.11 pg/mL.

**Q.** And the “DNA Content % Comment” value [3]?
**A.** Its value is “significant growth arrest at the G2/M phase; also recorded: cell growth arrest (G2/M)”.

**Q.** And the “DNA Content % %G0-G1” value [3]?
**A.** The value was 31.47%.

**Q.** What about the “DNA Content % %G2-M” value [3] of the same molecule?
**A.** The value was 44.74 ± 0.1747 %.

**Q.** And the “DNA Content % %Pre G1” value [3]?
**A.** Its value is 33.71%.

**Q.** And the “DNA Content % %S” value [3]?
**A.** Its value is 23.79%.

**Q.** What about the “mitochondrial membrane potential % Live cells” value [4] of the same molecule?
**A.** Its value is 68.8%.

**Q.** And the “mitochondrial membrane potential ΔΨm % Apoptic cells” value [4]?
**A.** The value was 31.2%.

**Q.** What about the “shift in fluorescence (Δψmt) compared with control cells” value [4] of the same molecule?
**A.** The value was “non-significant shift”.
